Source: patent US20230040770A1, “HETEROCYCLIC COMPOUND AND USE THEREOF” (TAKEDA PHARMACEUTICAL COMPANY LIMITED, priority 2019, published 2023)

Each compound was assayed against T1, human orexin type 2 receptor (Homo sapiens, UniProt O43614) (assay: Measurement of orexin type 2 receptor agonist activity (calcium indicator fluorescence, CHO cells forcibly expressing human OX2 receptor)). Details: compound at 3 μM; 0% = DMSO, 100% = orexin A (human) 10 nM.
T1 construct: expressed in transfected cells
T1 sequence (O43614 1-444): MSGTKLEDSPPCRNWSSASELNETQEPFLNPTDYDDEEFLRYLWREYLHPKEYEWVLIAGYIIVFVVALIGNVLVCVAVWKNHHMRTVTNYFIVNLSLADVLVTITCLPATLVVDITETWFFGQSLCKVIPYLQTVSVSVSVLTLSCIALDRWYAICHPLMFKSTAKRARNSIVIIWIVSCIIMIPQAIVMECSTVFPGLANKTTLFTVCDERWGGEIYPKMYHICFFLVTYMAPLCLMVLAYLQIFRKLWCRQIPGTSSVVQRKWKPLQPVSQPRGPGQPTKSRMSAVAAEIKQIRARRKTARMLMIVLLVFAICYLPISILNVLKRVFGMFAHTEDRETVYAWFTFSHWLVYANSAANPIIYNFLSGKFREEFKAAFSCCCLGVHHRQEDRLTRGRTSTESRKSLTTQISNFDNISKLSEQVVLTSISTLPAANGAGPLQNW
Type: cell-based
Procedure, shortened: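 Agonist response normalised between vehicle (0%) and orexin A at 10 nM final (100%), from kinetic Fluo-4 calcium signals recorded for about 2 min after compound addition. Cells: stable human OX2R CHO clone, dye-loaded 30 min at 37 °C plus 30 min at room temperature.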

First: CCS(=O)(=O)N[C@@H]1[C@H](Cc2cccc(-c3cccc(C)c3)c2F)N(C(=O)C2(O)CCC2)CC1(F)F [Example 275, N-[(2S,3R)-4,4-difluoro-2-[(2-fluoro-3′-methyl[1,1′-biphenyl]-3-yl)methyl]-1-(1-hydroxycyclobutane-1-carbonyl)pyrrolidin-3-yl]ethanesulfonamide]
Second: CCS(=O)(=O)N[C@@H]1[C@H](Cc2cccc(-c3cccc(C)c3F)c2F)N(C(=O)C2(O)CCC2)CC1(F)F [Example 276, N-[(2S,3R)-2-[(2,2′-difluoro-3′-methyl[1,1′-biphenyl]-3-yl)methyl]-4,4-difluoro-1-(1-hydroxycyclobutane-1-carbonyl)pyrrolidin-3-yl]ethanesulfonamide]
The “OX2R agonist activity (3 μM, %)” value of the first is lower: 85% for the first, 88% for the second.

Going from `CCS(=O)(=O)N[C@@H]1[C@H](Cc2cccc(-c3cccc(C)c3)c2F)N(C(=O)C2CCO2)CC1(F)F` (stereo partly drawn) [Example 277, N-[(2S,3R)-4,4-difluoro-2-[(2-fluoro-3′-methyl[1,1′-biphenyl]-3-yl)methyl]-1-(oxetane-2-carbonyl)pyrrolidin-3-yl]ethanesulfonamide] to `CCS(=O)(=O)N[C@@H]1[C@H](Cc2cccc(-c3cccc(C)c3)c2F)N(C(=O)N2CCC2)CC1(F)F` [Example 285, N-{(2S,3R)-1-(azetidine-1-carbonyl)-4,4-difluoro-2-[(2-fluoro-3′-methyl[1,1′-biphenyl]-3-yl)methyl]pyrrolidin-3-yl}ethanesulfonamdie], the “OX2R agonist activity (3 μM, %)” value rises from 94% to 98%.

Going from `CCS(=O)(=O)N[C@@H]1[C@H](Cc2cccc(-c3cc(F)cc(F)c3)c2F)N(C(=O)N(C)C)CC1(F)F` [Example 282, (2S,3R)-3-[(ethanesulfonyl)amino]-4,4-difluoro-N,N-dimethyl-2-[(2,3′,5′-trifluoro[1,1′-biphenyl]-3-yl)methyl]pyrrolidine-1-carboxamide] to `CCS(=O)(=O)N[C@@H]1[C@H](Cc2cccc(-c3cc(F)cc(F)c3)c2F)N(C(=O)N2CCC2)CC1(F)F` [Example 283, N-{(2S,3R)-1-(azetidine-1-carbonyl)-4,4-difluoro-2-[(2,3′,5′-trifluoro[1,1′-biphenyl]-3-yl)methyl]pyrrolidin-3-yl}ethanesulfonamide], the “OX2R agonist activity (3 μM, %)” value falls from 96% to 93%.

First: CCS(=O)(=O)N[C@@H]1[C@H](Cc2cccc(-c3cccc(C)c3)c2F)N(C(=O)N(C)C)CC1(F)F [Example 284, (2S,3R)-3-[(ethanesulfonyl)amino]-4,4-difluoro-2-[(2-fluoro-3′-methyl[1,1′-biphenyl]-3-yl)methyl]-N,N-dimethylpyrrolidine-1-carboxamide]
Second: CCS(=O)(=O)N[C@@H]1[C@H](Cc2cccc(-c3cccc(F)c3)c2F)N(C(=O)N2CCC2)CC1(F)F [Example 287, N-{(2S,3R)-1-(azetidine-1-carbonyl)-2-[(2,3′-difluoro[1,1′-biphenyl]-3-yl)methyl]-4,4-difluoropyrrolidin-3-yl}ethanesulfonamide]
The “OX2R agonist activity (3 μM, %)” value of the first is lower: 92% for the first, 94% for the second.

Compared with `CCS(=O)(=O)N[C@@H]1[C@H](Cc2cccc(-c3cccc(F)c3F)c2F)N(C(=O)N2CCC2)CC1(F)F` [Example 289, N-{(2S,3R)-1-(azetidine-1-carbonyl)-4,4-difluoro-2-[(2,2′,3′-trifluoro[1,1′-biphenyl]-3-yl)methyl]pyrrolidin-3-yl}ethanesulfonamide], `CCS(=O)(=O)N[C@@H]1[C@H](Cc2cccc(-c3cccc(C)c3F)c2F)N(C(=O)N2CCC2)CC1(F)F` [Example 291, N-{(2S,3R)-1-(azetidine-1-carbonyl)-2-[(2,2′-difluoro-3′-methyl[1,1′-biphenyl]-3-yl)methyl]-4,4-difluoropyrrolidin-3-yl}ethanesulfonamide] is higher in “OX2R agonist activity (3 μM, %)” value: 80% for the first, 90% for the second.

Compared with `CCS(=O)(=O)N[C@H]1[C@@H](F)CN(C(=O)C(C)C)[C@H]1Cc1cccc(-c2cc(F)ccc2F)c1F` [Example 292, N-{(2S,3R,4S)-4-fluoro-1-(2-methylpropanoyl)-2-[(2,2′,5′-trifluoro[1,1′-biphenyl]-3-yl)methyl]pyrrolidin-3-yl}ethanesulfonamide], `CCS(=O)(=O)N[C@H]1[C@@H](F)CN(C(=O)N(C)C)[C@H]1Cc1cccc(-c2cc(F)ccc2F)c1F` [Example 294, (2S,3R,4S)-3-[(ethanesulfonyl)amino]-4-fluoro-N,N-dimethyl-2-[(2,2′,5′-trifluoro[1,1′-biphenyl]-3-yl)methyl]pyrrolidine-1-carboxamide] is higher in “OX2R agonist activity (3 μM, %)” value: 87% for the first, 96% for the second.

First: CCS(=O)(=O)N[C@H]1[C@@H](F)CN(C(=O)C(C)C)[C@H]1Cc1cccc(-c2ccccc2)c1F [Example 293, N-[(2S,3R,4S)-4-fluoro-2-[(2-fluoro[1,1′-biphenyl]-3-yl)methyl]-1-(2-methylpropanoyl)pyrrolidin-3-yl]ethanesulfonamide]
Second: CCS(=O)(=O)N[C@H]1[C@@H](F)CN(C(=O)N(C)C)[C@H]1Cc1cccc(-c2ccccc2)c1F [Example 295, (2S,3R,4S)-3-[(ethanesulfonyl)amino]-4-fluoro-2-[(2-fluoro[1,1′-biphenyl]-3-yl)methyl]-N,N-dimethylpyrrolidine-1-carboxamide]
The “OX2R agonist activity (3 μM, %)” value of the first is lower: 83% for the first, 95% for the second.

Going from `CCS(=O)(=O)N[C@H]1[C@@H](F)CN(C(=O)C(C)C)[C@H]1Cc1cccc(-c2cc(F)cc(F)c2)c1F` [Example 296, N-{(2S,3R,4S)-4-fluoro-1-(2-methylpropanoyl)-2-[(2,3′,5′-trifluoro[1,1′-biphenyl]-3-yl)methyl]pyrrolidin-3-yl}ethanesulfonamide] to `CCS(=O)(=O)N[C@H]1[C@@H](F)CN(C(=O)C2CCO2)[C@H]1Cc1cccc(-c2cc(F)cc(F)c2)c1F` (stereo partly drawn) [Example 304, N-{(2S,3R,4S)-4-fluoro-1-(oxetane-2-carbonyl)-2-[(2,3′,5′-trifluoro[1,1′-biphenyl]-3-yl)methyl]pyrrolidin-3-yl}ethanesulfonamide], the “OX2R agonist activity (3 μM, %)” value rises from 96% to 99%.

Going from `CCS(=O)(=O)N[C@H]1[C@@H](F)CN(C(=O)C(C)C)[C@H]1Cc1cccc(-c2cccc(F)c2F)c1F` [Example 297, N-{(2S,3R,4S)-4-fluoro-1-(2-methylpropanoyl)-2-[(2,2′,3′-trifluoro[1,1′-biphenyl]-3-yl)methyl]pyrrolidin-3-yl}ethanesulfonamide] to `CCS(=O)(=O)N[C@H]1[C@@H](F)CN(C(=O)C(C)C)[C@H]1Cc1cccc(-c2cccc(Cl)c2)c1F` [Example 298, N-[(2S,3R,4S)-2-[(3′-chloro-2-fluoro[1,1′-biphenyl]-3-yl)methyl]-4-fluoro-1-(2-methylpropanoyl)pyrrolidin-3-yl]ethanesulfonamide], the “OX2R agonist activity (3 μM, %)” value rises from 95% to 96%.

Compared with `CCS(=O)(=O)N[C@H]1[C@@H](F)CN(C(=O)C2CCO2)[C@H]1Cc1cccc(-c2cc(F)cc(F)c2)c1F` (stereo partly drawn) [Example 305, N-{(2S,3R,4S)-4-fluoro-1-(oxetane-2-carbonyl)-2-[(2,3′,5′-trifluoro[1,1′-biphenyl]-3-yl)methyl]pyrrolidin-3-yl}ethanesulfonamide], `CCS(=O)(=O)N[C@H]1[C@@H](F)CN(C(=O)C23CC(C2)C3)[C@H]1Cc1cccc(-c2cc(F)ccc2F)c1F` [Example 306, N-{(2S,3R,4S)-1-(bicyclo[1.1.1]pentane-1-carbonyl)-4-fluoro-2-[(2,2′,5′-trifluoro[1,1′-biphenyl]-3-yl)methyl]pyrrolidin-3-yl}ethanesulfonamide] is lower in “OX2R agonist activity (3 μM, %)” value: 103% for the first, 89% for the second.
